Data from US20040197268A1, “Method of imaging amyloid deposits using substituted rhodanine derivatives” (priority 1999, published 2004).

Columns and labels:
[1] = target: T1, Aβ(1-40) (Homo sapiens, UniProt P05067); assay: BASSR (Beta-Amyloid Self-Seeding Radioassay), inhibitors of self-seeded amyloid fibril growth; format: biochemical; conditions: 30 μM soluble Aβ(1-40) + 125I-labeled Aβ(1-40), pH 7.5, 37° C., 3 to 5 hours, filtration
T1 construct: Soluble Aβ(1-40) peptide (Bachem, Torrance, Calif.); purchased Bachem, Torrance, Calif
Protocol: BASSR (Beta-Amyloid Self-Seeding Radioassay)
(§1) An assay for inhibitors of self-seeded amyloid fibril growth
Assay Buffer—50 mM sodium phosphate, pH 7.5, 100 mM NaCl, 0.02% NaN3, 1 M urea (filter and store at 4° C.)
Soluble Aβ(1-40) peptide (Bachem, Torrance, Calif.)—2.2 mg/mL in deionized H2O (stored in aliquots at −20° C., keep on ice when thawed) will self-seed after 1 week storage. Typically, the solution should be stored until no lag phase is seen in the assay.
^125I-labeled Aβ(1-40)—150K-350K cpm/μL in 100% acetonitrile—0.1% trifluoroacetic acid (TFA)—1% β-mercaptoethanol (aliquots stored at −20° C.). ^125I-labeled Aβ(1-40) can be made in accordance with the procedure set forth by H. Levine, III in Neurobiol. Aging, 16:755 (1995), which is hereby incorporated by reference, or this reagent may be purchased from Amersham, Arlington Heights, Ill.
Final assay conditions: 30 μM soluble Aβ(1-40) in deionized water in assay buffer+20-50K cpm ^125I-labeled Aβ(1-40) per assay. Compound to be tested is dissolved in dimethylsulfoxide (DMSO), typically 5-50 mM stock, such that the final concentration of DMSO is <1% v/v in the assay.
Assay: Reaction mixture for 50 assays (on ice) is comprised of 0.1-0.2 μL of […] ^125I-labeled Aβ(1-40)+1 μL of soluble Aβ(1-40)+13.5 μL assay buffer per assay. The following are the amounts of the components of the reaction mixture sufficient for 50 assay wells.
1) Prepare reaction mixture above by mixing components and storing on ice.
2) Pipet 14.5 μL of reaction mixture into each of 50 wells on a polypropylene U-bottom 96-well microtiter plate on ice (Costar 3794).
(§2) 3) Add 1.7 μL of diluted compound to be tested to each well in a column of eight, including solvent control. Serial 3-fold dilutions from 1 mM (100 μM final) in assay buffer−urea=7 dilutions+zero. Each 96-well plate can therefore accommodate 11 samples+1 Congo Red control (0.039-5 μM final in 2-fold steps).
4) Seal the plate with aluminum film (Beckman 538619) and incubate for 10 minutes on ice.
5) Raise the temperature to 37° C. and incubate for 3 to 5 hours (depending on the lot of the peptide).
6) Remove the aluminum film and add 200 μL/well of ice cold assay buffer with urea, collecting the radiolabeled fibrils by vacuum filtration through 0.2 μm pore size GVWP filters in 96-well plates (Millipore MAGV N22, Bedford, Mass.). Determine the radioactivity of the filters using standard methods well-known to those skilled in the art.

[2] = target: T1, Aβ(1-40); assay: BASST (Beta-Amyloid Self-Seeding, ThioflavinT), inhibitors of self-seeded amyloid fibril growth; format: biochemical; conditions: 30 μM soluble Aβ(1-40), pH 7.5, 37° C., 3 to 5 hours, thioflavin T fluorescence
Protocol: BASST (Beta-Amyloid Self-Seeding, ThioflavinT)
as §1
Assay Buffer—50 mM sodium phosphate, pH 7.5, 100 mM NaCl, 0.02% NaN3, 1 M urea (filter and store at 4° C.).
Soluble Aβ(1-40)—2.2 mg/mL in deionized H2O (store in aliquots at −20° C., keep on ice when thawed) will self-seed after 1 week storage. Typically, the solution should be stored until no lag phase is seen in the assay.
Final assay conditions: 30 μM soluble Aβ(1-40) in deionized water in assay buffer. Compound to be tested is dissolved in DMSO, typically 5-50 mM stock, such that the final concentration of DMSO is <1% v/v in the assay.
Assay: Reaction mixture for 50 assays (on ice) comprised of 1 μL of soluble Aβ(1-40)+13.5 μL assay buffer per assay. The following are the amounts of the components of the reaction mixture that result in each of the 50 assay wells.
1) Prepare the reaction mix above by mixing the components and storing on ice.
2) Pipet […] of reaction mixture into each of 50 wells of a polystyrene U-bottom 96-well microtiter plate (Corning 25881-96) on ice.
as §2, with “[…]” for “μL”
4) Seal the plate with aluminum film and incubate for 10 minutes on ice.
5) Raise the temperature to 37° C. and incubate for 3 to 5 hours (depends on the lot of the peptide).
6) Remove the aluminum film and add 250 μL/well of 5 μM thioflavin T (ThT) [T-3516, Sigma-Aldrich] in 50 mM glycine-NaOH, pH 8.5. Read fluorescence on a plate reader (ex=440 nm/20 nm; em=485 nm/20 nm) within 5 minutes.

[3] = target: T2, Aβ(1-42) (Homo sapiens, UniProt P05067); assay: BATYM Assay (Aβ(1-42) aggregation, Thioflavin T fluorescence); format: biochemical; conditions: Aβ 1-42 final concentration 100 μM, PBS pH 7.4, 37° C., 1 day, ThT fluorescence
T2 construct: Required Aβ(1-42)(California Peptide) was dried from its hexafluoroisopropanol (HFIP) stock solution; purchased California Peptide
Protocol: Required Aβ(1-42)(California Peptide) was dried from its hexafluoroisopropanol (HFIP) stock solution. The Aβ(1-42) was dissolved in dimethylsulfoxide (DMSO) and then mixed with phosphate buffered saline, (PBS) (pH 7.4). The mixed Aβ(1-42) solution was filtered with a 0.2 μm Omnipore membrane syringe filter (Millipore, Bedford, Mass.). The compound to be tested in DMSO (50 times concentrate) was put into each well (0.5 μL/well) of a 96-well plate. The Aβ(1-42) solution was added into each well (24.5 μL/well). The plate was centrifuged at 1,000 g for 5 minutes and incubated at 37° C. for 1 day (Aβ 1-42; final concentration 100 μM).
After incubation Thioflavin T (ThT) (30 μM) solution in glycine-NaOH buffer (pH 8.5, 50 mM) was added into each well (250 μL/well), fluorescence was measured (ex. 440/20 nm; em 485/20 nm) using a fluorescence plate reader. The inhibitory activity was calculated as the reduction of fluorescence with the following formula:
inhibition (%)={(F(Aβ)−F(Aβ+compound)}/{F(Aβ)−F(solvent+compound)}×100
The IC50s were calculated by a curve fitting program using the following equation. The data were obtained from two different experiments in triplicate.
x=concentration of tested compound (M),

[4] = target: T3, beta amyloid peptide Aβ(1-40) (Homo sapiens, UniProt P05067); assay: BAPA (Beta-Amyloid Peptide Aggregation), pH 6.0; format: biochemical; conditions: Aβ(1-40) 33 μM, pH 6.0, 2 to 4 hours at room temperature, filtration
T3 construct: 0.5 mg/mL AP (140) peptide in 20% HFIP+0.1 μL/assay radioiodinated ^125I Aβ(1-40)
Protocol: BAPA (Beta-Amyloid Peptide Aggregation)
This assay is used to provide a measure of inhibition by a compound against the aggregation behavior of the beta amyloid peptide.
The purpose of this assay is to provide a higher volume method of assaying the amount of beta amyloid aggregation using an endpoint assay based on filtration. In this assay, hexafluoroisopropanol (HFIP) is used to break down the initial amyloid peptide to a monomer state and use a concentration of 33 μM which is high enough so that aggregation will occur at pH 6.0 in several hours.
β-Amyloid Peptide Aggregation, pH 6.0 (BAPA)
In a 96-well plate (Costar 3794), we add […] 50 mM Phosphate Buffer, pH 6.0, 10 μL 0.5 mg/mL AP (140) peptide in 20% HFIP+0.1 μL/assay radioiodinated ^125I Aβ(1-40) [^125I Aβ(1-40)], and 1 μL of the compound to be tested starting at 50 mM with a concentration of DMSO <1%. Then, we incubate for 2 to 4 hours at room temperature. We stop the reaction with […] of 50 mM phosphate buffer, pH 6.0, and filter it through a 0.2 μm 96-well filter plate (Millipore MAGU N22). We wash the filter plate with 100 μL of the same phosphate buffer. Aggregation was detected on a Microbeta counter after impregnating the filters with Meltilex (1450-441) and is corrected for background.

T2 sequence (P05067 672-713 limits assumed): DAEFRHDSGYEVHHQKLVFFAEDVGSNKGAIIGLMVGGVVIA
T3 sequence (P05067 672-711 limits assumed): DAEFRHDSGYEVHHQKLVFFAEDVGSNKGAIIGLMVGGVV
T1 sequence (P05067 672-711 limits assumed): as above

SMILES	IC50 [1] [µM]	IC50 [2] [µM]	IC50 [3] [µM]	IC50 [4] [µM]	melting point [°C]
CCCCCCN(C)c1ccc(/C=C2\SC(=S)N(CC(=O)NC)C2=O)cc1 [Example 4, (Z) 2-{5-[4(Hexyl-methyl-amino)-benzylidene]-4-oxo-2-thioxo-thiazolidin-3-yl}-N-methyl-acetamide]	> 100	3	8.26	6	228 to 230
CCCCCN(CCCCC)c1ccc(/C=C2\SC(=S)N(CC(=O)NS(C)(=O)=O)C2=O)cc1 [Example 6, (Z) N-{5-[4-(Dipentylamino-benzylidene)4-oxo-2-thioxo-thiazolidin-3-yl]-acetyl}-methanesulfonamide]	> 100	28.5	2.92	3	134 to 138
CCCCCN(CCCCC)c1ccc(/C=C2\SC(=S)N(CC(=O)NS(=O)(=O)C(F)(F)F)C2=O)cc1 [Example 8, (Z) N-{5-[4-(Dipentylamino-benzylidene)-4-oxo-2-thioxo-thiazolidin-3-yl]-acetyl}-C,C,C-trifluoro-methanesulfonamide]	> 100	1	1.96	2.5	286 to 288
CCCCCCN(C)c1ccc(/C=C2\SC(=S)N(CC(=O)NS(=O)(=O)c3ccccc3)C2=O)cc1 [Example 9, (Z) N-({5-[4-(Hexyl-methyl-amino)benzylidene]-4-oxo-2-thioxo-thiazolidin-3-yl}-acetyl)benzenesulfonamide]	> 100	1.75	2.15	4	173 to 177
CCCCCCN(C)c1ccc(/C=C2\SC(=S)N(CCNS(=O)(=O)c3ccccc3)C2=O)cc1 [Example 11, (Z) N(2-{5-[4-(Hexyl-methyl-amino)benzylidene]-4-oxo-2-thioxo-thiazolidin-3-yl}-ethyl)-benzenesulfonamide]	> 100	9	2.19	25	152 to 155

The next lines start with the values.

IC50 [1] [µM]	IC50 [2] [µM]	IC50 [3] [µM]	IC50 [4] [µM]	melting point [°C]	SMILES
8	0.3	2.24	> 100	158 to 162	CCCCCCN(C)c1ccc(/C=C2\SC(=S)N(CCS(=O)(=O)NC(=O)C(F)(F)F)C2=O)cc1 [Example 3, (Z) 2-{5-[4-(Hexyl-methyl-amino)-benzylidene]-4-oxo-2-thioxo-thiazolidin-3-yl}-ethanesulfonic acid trifluoroacetyl-amide]
9	0.8	1.83	> 10	227 to 230	CCCCCCN(C)c1ccc(/C=C2\SC(=S)N(CC(=O)NS(C)(=O)=O)C2=O)cc1 [Example 5, (Z) N-({5-[4-(Hexyl-methyl-amino)-benzylidene]4-oxo-2-thioxo-thiazolidin-3-yl}-acetyl)methanesulfonamide]
1	0.4	1.7	70	94 to 97	CCCCCCN(C)c1ccc(/C=C2\SC(=S)N(CC(=O)NS(=O)(=O)C(F)(F)F)C2=O)cc1 [Example 7, (Z) C,C,C-Trifluoro-N-({5-[4-(hexyl-methyl-amino)-benzylidene]4-oxo-2-thioxo-thiazolidin-3-yl}-acetyl)methanesulfonamide]
> 100	1.1	2.51	8	150 to 153	CCCCCCN(C)c1ccc(/C=C2\SC(=S)N(CCNS(C)(=O)=O)C2=O)cc1 [Example 10, (Z) N-(2-{5-[4-(Hexyl-methyl-amino)-benzylidene]-4-oxo-2-thioxo-thiazolin-3-yl}-ethyl)-methanesulfonamide]
> 100	1	1.64	26	170 to 173	CCCCCCN(C)c1ccc(/C=C2\SC(=S)N(CCNS(=O)(=O)C(F)(F)F)C2=O)cc1 [Example 12, (Z) C,C,C-Trifluoro-N-(2-{5-[4-(hexyl-methyl-amino)benzyldene]-4-oxo-2-thioxo-thiazolidin-3-yl}-ethyl)methanesulfonamide]
> 100	10	3.5	28	136 to 139	CCCCCCN(C)c1ccc(/C=C2\SC(=S)N(CCNC(=O)C(F)(F)F)C2=O)cc1 [Example 13, (Z) 2,2,2-Trifluoro-N-(2-{5-[4(hexyl-methyl-amino)benzylidene]-4-oxo-2-thioxo-thiazolidin-3-yl}-ethyl)-acetamide]
